Biological target: T1, Human MTHFD2 (Homo sapiens, UniProt P13995)
T1 construct: residues 36-350 in Uniport ID P13995; His6 (N); made in house; host or cells: E. coli
T1 sequence (P13995 36-350): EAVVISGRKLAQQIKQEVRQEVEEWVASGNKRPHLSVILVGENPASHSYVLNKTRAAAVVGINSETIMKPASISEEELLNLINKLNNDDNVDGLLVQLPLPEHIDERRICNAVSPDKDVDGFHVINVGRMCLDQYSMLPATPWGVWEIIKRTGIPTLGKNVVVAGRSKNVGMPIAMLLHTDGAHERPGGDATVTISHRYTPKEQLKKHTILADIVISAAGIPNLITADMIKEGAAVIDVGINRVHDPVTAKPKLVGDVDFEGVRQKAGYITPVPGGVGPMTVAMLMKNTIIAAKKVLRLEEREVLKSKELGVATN
Assay: MTHFD2 Activity Assay (dehydrogenase activity, diaphorase/resazurin coupled fluorescence)
Format: biochemical
Details: inhibitory activity (IC50 and/or binding constant); 0.2 nM MTHFD2, 11 concentrations
Method in brief: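 Resorufin fluorescence (ex 525, em 598 nm) reports NADH formed by the dehydrogenase via diaphorase coupling. Enzyme (0.2 nM, residues 36-350, N-His6) sat with compound 15 min before 70 μM CH2-THF and 1 mM NAD+ started a 30 min reaction. IC50s come from 4-parameter fits over 11 concentrations.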

| IC50 [nM] | SMILES |
| --- | --- |
| 1000 to 5000 | Cn1c(Nc2ccccc2C#N)nc2c1c(=O)n(Cc1ccc(Cl)c(Cl)c1)c(=O)n2C [Example 142, 2-(1-(3,4-dichlorobenzyl)-3,7-dimethyl-2,6-dioxo-2,3,6,7-tetrahydro-1H-purin-8-ylamino)benzonitrile] |
| 1000 to 5000 | Cn1c(-n2ncnc2N)nc2c1c(=O)n(Cc1ccc(Cl)c(Cl)c1)c(=O)n2C [Example 143, 8-(5-amino-1H-1,2,4-triazol-1-yl)-1-(3,4-dichlorobenzyl)-3,7-dimethyl-1H-purine-2,6(3H,7H)-dione] |
| > 10000 | Cn1c(NC2CC(F)(F)C2)nc2c1c(=O)n(Cc1ccc(C(F)(F)F)cc1)c(=O)n2C [Example 145, 8-(3,3-difluorocyclobutylamino)-3,7-dimethyl-1-(4-(trifluoromethyl)benzyl)-1H-purine-2,6(3H,7H)-dione] |
| 10 to 1000 | Cn1c(Nc2ccccn2)nc2c1c(=O)n(Cc1ccc(Cl)c(Cl)c1)c(=O)n2C [Example 146, 1-(3,4-dichlorobenzyl)-3,7-dimethyl-8-(pyridin-2-ylamino)-1H-purine-2,6(3H,7H)-dione] |
| 10 to 1000 | Cn1c(NC2(C(=O)O)CC2)nc2c1c(=O)n(Cc1ccc(Cl)c(Cl)c1)c(=O)n2C [Example 147, 1-(1-(3,4-dichlorobenzyl)-3,7-dimethyl-2,6-dioxo-2,3,6,7-tetrahydro-1H-purin-8-ylamino)cyclopropanecarboxylic acid] |
| 10 to 1000 | Cn1c(NC2(C(=O)O)CCCC2)nc2c1c(=O)n(Cc1ccc(Cl)c(Cl)c1)c(=O)n2C [Example 148, 1-(1-(3,4-dichlorobenzyl)-3,7-dimethyl-2,6-dioxo-2,3,6,7-tetrahydro-1H-purin-8-ylamino)cyclopentanecarboxylic acid] |
| > 10000 | Cn1c(NC2(C(=O)O)CCCC2)nc2c1c(=O)n(Cc1ccc(C(F)(F)F)cc1)c(=O)n2C [Example 149, 1-(3,7-dimethyl-2,6-dioxo-1-(4-(trifluoromethyl)benzyl)-2,3,6,7-tetrahydro-1H-purin-8-ylamino)cyclopentanecarboxylic acid] |
| 10 to 1000 | Cn1c(Nc2cccc(N)n2)nc2c1c(=O)n(Cc1ccc(Cl)c(Cl)c1)c(=O)n2C [Example 150, 8-(6-aminopyridin-2-ylamino)-1-(3,4-dichlorobenzyl)-3,7-dimethyl-1H-purine-2,6(3H,7H)-dione] |
| > 10000 | Cn1c(NC(C(=O)O)C2CCCCC2)nc2c1c(=O)n(Cc1ccc(C(F)(F)F)cc1)c(=O)n2C (stereo not drawn) [Example 151, 2-cyclohexyl-2-((3,7-dimethyl-2,6-dioxo-1-(4-(trifluoromethyl)benzyl)-2,3,6,7-tetrahydro-1H-purin-8-yl)amino)acetic acid] |
| 1000 to 5000 | Cn1cnc2c1c(=O)n(Cc1ccc(Cl)c(Cl)c1)c(=O)n2C [Example 152, 1-(3,4-dichlorobenzyl)-3,7-dimethyl-1H-purine-2,6(3H,7H)-dione] |
| 5000 to 10000 | Cn1c(N)nc2c1c(=O)n(Cc1ccc(Cl)c(Cl)c1)c(=O)n2C [Example 153, 8-amino-1-(3,4-dichlorobenzyl)-3,7-dimethyl-1H-purine-2,6(3H,7H)-dione] |
| 1000 to 5000 | COC(=O)c1ccc(Nc2nc3c(c(=O)n(Cc4ccc(Cl)c(Cl)c4)c(=O)n3C)n2C)cc1 [Example 154, Methyl 4-(1-(3,4-dichlorobenzyl)-3,7-dimethyl-2,6-dioxo-2,3,6,7-tetrahydro-1H-purin-8-ylamino)benzoate] |
| 1000 to 5000 | CN(C)CCc1nc2c(c(=O)n(Cc3ccc(Cl)c(Cl)c3)c(=O)n2C)n1C [Example 157, 1-(3,4-dichlorobenzyl)-8-(2-(dimethylamino)ethyl)-3,7-dimethyl-1H-purine-2,6(3H,7H)-dione] |
| 10 to 1000 | Cn1c(CCO)nc2c1c(=O)n(Cc1ccc(Cl)c(Cl)c1)c(=O)n2C [Example 158, 1-(3,4-dichlorobenzyl)-8-(2-hydroxyethyl)-3,7-dimethyl-1H-purine-2,6(3H,7H)-dione] |
| 10 to 1000 | Cn1c(CCN2CCOCC2)nc2c1c(=O)n(Cc1ccc(Cl)c(Cl)c1)c(=O)n2C [Example 159, 1-(3,4-dichlorobenzyl)-3,7-dimethyl-8-(2-morpholinoethyl)-1H-purine-2,6(3H,7H)-dione] |
| 1000 to 5000 | C=Cc1nc2c(c(=O)n(Cc3ccc(Cl)c(Cl)c3)c(=O)n2C)n1C [Example 160, 1-(3,4-dichlorobenzyl)-3,7-dimethyl-8-vinyl-1H-purine-2,6(3H,7H)-dione] |
| 1000 to 5000 | COC(=O)c1nc2c(c(=O)n(Cc3ccc(Cl)c(Cl)c3)c(=O)n2C)n1C [Example 161, Methyl 1-(3,4-dichlorobenzyl)-3,7-dimethyl-2,6-dioxo-2,3,6,7-tetrahydro-1H-purine-8-carboxylate] |

| IC50 [nM] | SMILES |
| --- | --- |
| 5000 to 10000 | CCOC(=O)Cc1nc2c(c(=O)n(Cc3ccc(Cl)c(Cl)c3)c(=O)n2C)n1C [Example 162, ethyl 2-(1-(3,4-dichlorobenzyl)-3,7-dimethyl-2,6-dioxo-2,3,6,7-tetrahydro-1H-purin-8-yl)acetate] |
| 1000 to 5000 | COC(=O)c1cc(Cn2c(=O)c3c(nc(NCCCO)n3C)n(C)c2=O)ccc1Cl [Example 165, Methyl 2-chloro-5-({8-[(3-hydroxypropyl)amino]-3,7-dimethyl-2,6-dioxo-2,3,6,7-tetrahydro-1H-purin-1-yl}methyl)benzoate] |
| > 10000 | Cn1c(NCCCO)nc2c1c(=O)n(Cc1ccc(Cl)c(CO)c1)c(=O)n2C [Example 166, 1-{[4-chloro-3-(hydroxymethyl)phenyl]methyl}-8-[(3-hydroxypropyl)amino]-3,7-dimethyl-2,3,6,7-tetrahydro-1H-purine-2,6-dione] |
| > 10000 | Cn1c(NCCCO)nc2ncn(Cc3ccc(Cl)c(Cl)c3)c(=O)c21 [Example 167, 1-[(3,4-dichlorophenyl)methyl]-8-[(3-hydroxypropyl)amino]-7-methyl-6,7-dihydro-1H-purin-6-one] |
| 10 to 1000 | C[C@@H](Nc1nc2c(c(=O)n(Cc3ccc(Cl)c(Cl)c3)c(=O)n2C)n1C)C(=O)O [Example 169, (R)-2-(1-(3,4-dichlorobenzyl)-3,7-dimethyl-2,6-dioxo-2,3,6,7-tetrahydro-1H-purin-8-ylamino)propanoic acid] |
| 10 to 1000 | Cn1c(Nc2ccncc2)nc2c1c(=O)n(Cc1cc3ccccc3[nH]1)c(=O)n2C [Example 174, 1-((1H-indol-2-yl)methyl)-3,7-dimethyl-8-(pyridin-4-ylamino)-1H-purine-2,6(3H,7H)-dione] |
| 10 to 1000 | Cn1c(Nc2ccncc2)nc2c1c(=O)n(Cc1cc3cc(Cl)ccc3[nH]1)c(=O)n2C [Example 176, 1-((5-chloro-1H-indol-2-yl)methyl)-3,7-dimethyl-8-(pyridin-4-ylamino)-1H-purine-2,6(3H,7H)-dione] |
| 10 to 1000 | Cc1ccc2[nH]c(Cn3c(=O)c4c(nc(Nc5ccncc5)n4C)n(C)c3=O)cc2c1 [Example 181, 3,7-dimethyl-1-((5-methyl-1H-indol-2-yl)methyl)-8-(pyridin-4-ylamino)-1H-purine-2,6(3H,7H)-dione] |
| 10 to 1000 | COc1ccc2[nH]c(Cn3c(=O)c4c(nc(N[C@H]5CC[C@@H](O)C5)n4C)n(C)c3=O)cc2c1 [Example 182, 8-((1S,3R)-3-hydroxycyclopentylamino)-1-((5-methoxy-1H-indol-2-yl)methyl)-3,7-dimethyl-1H-purine-2,6(3H,7H)-dione] |
| 10 to 1000 | COc1ccc2[nH]c(Cn3c(=O)c4c(nc(Nc5ccncc5)n4C)n(C)c3=O)cc2c1 [Example 183, 1-((5-methoxy-1H-indol-2-yl)methyl)-3,7-dimethyl-8-(pyridin-4-ylamino)-1H-purine-2,6(3H,7H)-dione] |
| 10 to 1000 | Cc1ccc2c(c1)cc(Cn1c(=O)c3c(nc(N[C@H]4CC[C@@H](O)C4)n3C)n(C)c1=O)n2C [Example 185, 1-((1,5-dimethyl-1H-indol-2-yl)methyl)-8-((1S,3R)-3-hydroxycyclopentylamino)-3,7-dimethyl-1H-purine-2,6(3H,7H)-dione] |
| 1000 to 5000 | COc1ccc2c(c1)cc(Cn1c(=O)c3c(nc(N[C@H]4CC[C@@H](O)C4)n3C)n(C)c1=O)n2C [Example 188, 8-((1S,3R)-3-hydroxycyclopentylamino)-1-((5-methoxy-1-methyl-1H-indol-2-yl)methyl)-3,7-dimethyl-1H-purine-2,6(3H,7H)-dione] |
| 10 to 1000 | Cn1c(Nc2cc[nH]c(=O)n2)nc2c1c(=O)n(Cc1cc3ccccc3[nH]1)c(=O)n2C [Example 189, 1-((1H-indol-2-yl)methyl)-3,7-dimethyl-8-(2-oxo-1,2-dihydropyrimidin-4-ylamino)-1H-purine-2,6(3H,7H)-dione] |
| 10 to 1000 | Cc1ccc2[nH]c(Cn3c(=O)c4c(nc(Nc5cc[nH]c(=O)n5)n4C)n(C)c3=O)cc2c1 [Example 190, 3,7-dimethyl-1-((5-methyl-1H-indol-2-yl)methyl)-8-(2-oxo-1,2-dihydropyrimidin-4-ylamino)-1H-purine-2,6(3H,7H)-dione] |
| 10 to 1000 | Cn1c(N2CCC(O)CC2)nc2c1c(=O)n(Cc1cc3ccccc3[nH]1)c(=O)n2C [Example 191, 1-((1H-indol-2-yl)methyl)-8-(4-hydroxypiperidin-1-yl)-3,7-dimethyl-1H-purine-2,6(3H,7H)-dione] |
| 1000 to 5000 | Cn1c(N2CC(O)C2)nc2c1c(=O)n(Cc1cc3ccccc3[nH]1)c(=O)n2C [Example 192, 1-((1H-indol-2-yl)methyl)-8-(3-hydroxyazetidin-1-yl)-3,7-dimethyl-1H-purine-2,6(3H,7H)-dione] |

Reference: patent US12187728B2 (Raze Therapeutics, Inc., priority 2015, dated 2025)
